“Also recorded” adds a separate entry of the source.
Tests used:
[1] = test system: gum wounds after tooth extraction (oral lesion); assay: CGP powder applied to the gum wound after tooth extraction (single human subject); format: in vivo
Description: A tooth was removed from a human, subject and normal packing was applied. There were five (5) stitches put in. Approximately 2 hours after the extraction, the human subject lightly rinsed their mouth and applied powdered CGP granulate of approximately 150 micron size granules directly to the gum and allowed the powder to become wet. Sufficient CGP powder was applied to form a light plaster coating over the wound. This was repeated approximately 6 hours later, before retiring that night, and again the next morning. In all cases, the CGP remained intact and in a cohesive mass on the gum for 15 minutes or more, after which time it slowly dissolved or dispersed and was safely swallowed. At no time during the post-extraction period was there swelling or pain. […] Rapid healing of the gum wounds was observed by a periodontist at the normal stitch-removal visit, 7 days subsequent to tooth removal. The gums had fully closed and were normal pink color in about one week. The periodontist commented that in their 15 years of practice, they had never seen this quality of healing at this speed.

[2] = test system: wounds post implant placement (oral lesion); assay: Mucosal soft tissue healing in patients post implant placement applying dry CGP (PerioCell), small uncontrolled study; format: in vivo, human
Description: Methods according to embodiments of the present invention have been applied to multiple patients post implant placement. The age range of implant patients was 30-65 years. All patients had wound closure with 4-0 silk suture with interrupted knots unless otherwise noted. The patients were instructed to apply dry CGP that has less than 5% moisture in 150 micron granulate (PerioCell™, AkPharma Inc., Pleasantville, N.J. 08232) to the wounds three times daily, approximately 4 hours apart, for the first three days succeeding surgery. Mucosal soft tissue healing was observed and studied in these patients. Patient's compliance with the use instructions for CGP was reported by the patient at the post-operational visit (post-op) and was rated as Excellent, Good, Fair or Poor. In most, but not all cases, patients were reasonably compliant.

[3] = test system: rhino mucosal passage inflammation; assay: Observation of low concentrations of CGP on rhino mucosal passage inflammation; format: in vivo; settings: CGP between 1% and 2% by weight

calcium glycerophosphate [CGP]
healing of the gum wounds observed by periodontist at stitch-removal visit ([1]; 7 days subsequent to tooth removal): Rapid healing | swelling or pain during the post-extraction period ([1]; CGP applied about 2 h and 8 h after extraction and next morning): At no time | time until gums were normal pink color (self-observation via mirror) ([1]; after the extraction): 36 to 48 h | correlation between good and excellent compliance with use instructions for CGP and little to no tissue gapping and good wound healing ([2]; all implant patients): definite correlation | erythema at the wound margin at first post-op visit ([2]; one week post-op (2 weeks for patient 018), one patient per block): very little erythema or edema; also recorded: very little gingival erythema; also recorded: localized mild erythema; also recorded: little to no marginal erythema; also recorded: almost no erythema; also recorded: mild mesial inflammation; also recorded: Mild left side erythema and more moderate right side marginal erythema; also recorded: Mild to moderate marginal erythema | wound closure / tissue approximation at first post-op visit, noted by periodontist ([2]; one week post-op (2 weeks for patient 018), one patient per block, CGP three times daily for first three days, compliance varies by patient): excellent tissue approximation; also recorded: good tissue approximation; also recorded: beautiful wound approximation; also recorded: perfect wound margin approximation; also recorded: moderate tissue gaps in the left side; also recorded: wound margins came together very well with no gaps; also recorded: greater than 50% gapping of the margins; also recorded: great wound approximation with no gaps; also recorded: great wound approximation; also recorded: slight tissue gap at the mesial aspect; also recorded: no gaps seen; also recorded: excellent wound approximation and perfect closure; also recorded: great heal; also recorded: Wound closure was better in the mandible than in the maxilla; also recorded: Wound closure looked great with no gaps; also recorded: moderate gap at wound margin; also recorded: mild gap at the wound margin; also recorded: good wound approximation; also recorded: better healing on the left side than on the right; also recorded: slight gap at the wound margin; also recorded: rolled wound borders with slight gapping across | healing / closure at later post-op visit ([2]; three weeks to one month post-op, one patient per block): completely healed; also recorded: complete heal; also recorded: healing was complete; also recorded: things looked better; also recorded: perfectly closed wound; also recorded: implant was removed; also recorded: perfect tissue approximation; also recorded: perfect wound approximation; also recorded: excellent healing; also recorded: perfect closure; also recorded: good approximation; also recorded: all looked great; also recorded: complete closure; also recorded: good closure; also recorded: wound margin looked good; also recorded: wound margins were completely approximated; also recorded: excellent heal; also recorded: perfect heal on the left side | effect on apparent rhino mucosal passage inflammation [3]: favorably affect

Reference: patent US20100305071A1, “METHODS FOR IMPROVING HEALING OF AN ORAL LESION USING A GLYCEROPHOSPHATE SALT” (PRELIEF INC., priority 2007, published 2010)
